Measured values taken from patent publication US10584127B2, “3,3-difluoropiperidine carbamate heterocyclic compounds as NR2B NMDA receptor antagonists” (Rugen Holdings (Cayman) Limited, priority 2015, dated 2020).
pIC50: −log10 of the molar value.

Legend:
[1] = test system: NMDA receptor (all subtypes), native rat brain receptors; assay: [3H] MK-801 radioligand binding assay, rat brain membranes; details: 2 nM [3H] MK-801, rat brain membranes
Description: This example describes NMDA receptor binding assays using two different radioligands, [^3H] […] An established binding assay using the non-selective NMDA receptor ligand [^3H] […] The binding assay method using the NR2B selective receptor ligand [^3H] […] This assay serves as a selective measure of NR2B receptor binding activity in native rat brain receptors. Briefly, the brains of Male Wistar rats were homogenized (Polytron) before centrifugation at 40,000×g for 15 minutes at 4° C. After 2 washes, the final pellet was homogenized and stored at −80° C. The protein concentration was determined by Bradford assay.
Test compounds were solubilized at 10 mM in DMSO. Then the dilutions were performed with a constant solvent concentration (1% DMSO) in the assay.
After incubation for 4.5 h at room temperature, the assays were filtered on GF/B filters pretreated with 0.3% (v/v) PEI with a Brandel system for [^3H] […] The experiment was performed in duplicate (n=2).

CYP2D6 = CYP2D6 (Homo sapiens (Human), UniProt P10635); assay: CYP P450 enzyme inhibition, pooled human liver microsome; format: in vitro ADME; details: HLM, dextromethorphan 5 μM
CYP2D6, sequence (P10635 whole entry): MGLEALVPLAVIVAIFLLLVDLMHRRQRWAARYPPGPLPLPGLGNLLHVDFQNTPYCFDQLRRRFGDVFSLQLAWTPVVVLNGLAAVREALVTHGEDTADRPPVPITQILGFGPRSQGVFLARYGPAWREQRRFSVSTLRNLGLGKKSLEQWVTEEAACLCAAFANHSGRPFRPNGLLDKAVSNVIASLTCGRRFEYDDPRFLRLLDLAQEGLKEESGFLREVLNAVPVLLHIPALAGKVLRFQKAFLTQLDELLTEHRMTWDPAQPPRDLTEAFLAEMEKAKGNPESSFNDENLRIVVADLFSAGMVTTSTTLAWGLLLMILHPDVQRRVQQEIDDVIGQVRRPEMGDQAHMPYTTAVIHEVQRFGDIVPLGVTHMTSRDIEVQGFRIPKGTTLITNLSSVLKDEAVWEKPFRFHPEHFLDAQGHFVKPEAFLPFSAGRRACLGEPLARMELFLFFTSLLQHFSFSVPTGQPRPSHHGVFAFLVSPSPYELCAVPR
Description: Those CYP isoforms and their corresponding probe substrates are as follows: CYP1A2 (phenacetin, 30 μM), CYP2C9 (tolutamide, 100 μM), CYP2C19 (S-mephenytoin, 40 μM), CYP2D6 (dextromethorphan, 5 μM) and CYP3A4 (midazolam, 1 μM). All probe substrates were used at concentrations near or below their Kms. For experiment, a reaction mixture of test compound at 10 μM or in serial dilution, CYP probe substrate described above and 0.2 mg/mL pooled HLM in phosphate buffer, pH 7.4 in a final volume of 200 μL was pre-incubated at 37° C. for 10 minutes in triplicate. The reaction was initiated by addition of NADPH at final concentration of 1 mM. The reaction was terminated after 10 minutes (CYP1A2, CYP2D6 and CYP3A4) or 30 minutes (CYP2C9 and CYP2C19) by addition of 100 μL ice-cold acetonitrile with internal standard (IS). The samples were then centrifuged at 13,000 rpm and the supernatants were injected to LC-MS/MS (Agilent Technologies) to quantify the concentration of the specific metabolites of the probe substrates formed by individual CYP450 isoforms. The inhibition ratio is calculated as: (Mt−M0)/Mwater×100% in which Mt and M0 represent the concentrations of the specific probe substrate metabolite, which was formed by individual CYP450 isoform, at the beginning and end of the reaction in the presence of test compound; while Mwater represents the concentration of the specific metabolite at the end of the reaction in the absence of test compound. Test compound concentration-dependent response data experiments performed in triplicate.

[2] = test system: electroconvulsive threshold (tonic convulsions); assay: Electroconvulsive Threshold Test (ECT); format: in vivo, rats; details: rats
Description: Rats were administered ECS (rectangular current: 0.6 ms pulse width, 1.5 s duration, 200 Hz) via earclip electrodes connected to a constant current shock generator (Ugo Basile: type 7801). Test compounds were administered by oral gavage (p.o.) 1 hour before the test at a dose volume of 5 mL/kg.
Treatment groups of 20 rats were exposed to ECS as follows: The first animal was exposed to 30 mA of ECS. […] (increases of 5 mA) until the first tonic convulsion was observed. Once the first tonic convulsion was observed, the intensity of ECS was decreased by 2 mA for the next animal and then decreased or increased by 2 mA from animal to animal depending on whether the previous animal convulsed or not. If the first animal did convulse (tonic convulsions) within 5 seconds, animal n°2 is exposed to 25 mA, etc . . . (decreases of 5 mA) until the absence of tonic convulsions was observed. At this point, the intensity of ECS was increased by 2 mA for the next animal and then decreased or increased by 2 mA from animal to animal depending on whether the previous animal convulsed or not. The minimum current intensity applied is 5 mA and the maximum 95 mA. The first 5 animals serve to approach threshold current and were not included in the analysis. The results are presented as the mean current intensity administered to the final 15 animals of a group. The test was performed blind. A positive percent change indicates an anticonvulsant effect. A negative percent change indicates a proconvulsant effect. The test substance was evaluated at 4 doses, typically using 0.5% dimethylsulfoxide, 4% hydroxypropyl-b-cyclodextrin water as a vehicle, and administered p.o. 60 minutes before ECS, and compared with a vehicle control group. Diazepam (16 mg/kg p.o.), administered under the same experimental conditions, was used as reference substance. The experiment included 6 groups. Data with the test substance was analyzed by comparing treated groups with vehicle control using one-way ANOVA followed by Dunnett's t tests.

cloned human NR1/NR2A = cloned human NR1/NR2A (Homo sapiens (Human), UniProt Q12879); assay: NR2A antagonist activity, Fluo-4 calcium influx in HEK293 cells; format: cell-based; details: glutamate 100 μM, glycine 50 μM
cloned human NR1/NR2A, sequence (Q12879 23-1464, other chains not shown): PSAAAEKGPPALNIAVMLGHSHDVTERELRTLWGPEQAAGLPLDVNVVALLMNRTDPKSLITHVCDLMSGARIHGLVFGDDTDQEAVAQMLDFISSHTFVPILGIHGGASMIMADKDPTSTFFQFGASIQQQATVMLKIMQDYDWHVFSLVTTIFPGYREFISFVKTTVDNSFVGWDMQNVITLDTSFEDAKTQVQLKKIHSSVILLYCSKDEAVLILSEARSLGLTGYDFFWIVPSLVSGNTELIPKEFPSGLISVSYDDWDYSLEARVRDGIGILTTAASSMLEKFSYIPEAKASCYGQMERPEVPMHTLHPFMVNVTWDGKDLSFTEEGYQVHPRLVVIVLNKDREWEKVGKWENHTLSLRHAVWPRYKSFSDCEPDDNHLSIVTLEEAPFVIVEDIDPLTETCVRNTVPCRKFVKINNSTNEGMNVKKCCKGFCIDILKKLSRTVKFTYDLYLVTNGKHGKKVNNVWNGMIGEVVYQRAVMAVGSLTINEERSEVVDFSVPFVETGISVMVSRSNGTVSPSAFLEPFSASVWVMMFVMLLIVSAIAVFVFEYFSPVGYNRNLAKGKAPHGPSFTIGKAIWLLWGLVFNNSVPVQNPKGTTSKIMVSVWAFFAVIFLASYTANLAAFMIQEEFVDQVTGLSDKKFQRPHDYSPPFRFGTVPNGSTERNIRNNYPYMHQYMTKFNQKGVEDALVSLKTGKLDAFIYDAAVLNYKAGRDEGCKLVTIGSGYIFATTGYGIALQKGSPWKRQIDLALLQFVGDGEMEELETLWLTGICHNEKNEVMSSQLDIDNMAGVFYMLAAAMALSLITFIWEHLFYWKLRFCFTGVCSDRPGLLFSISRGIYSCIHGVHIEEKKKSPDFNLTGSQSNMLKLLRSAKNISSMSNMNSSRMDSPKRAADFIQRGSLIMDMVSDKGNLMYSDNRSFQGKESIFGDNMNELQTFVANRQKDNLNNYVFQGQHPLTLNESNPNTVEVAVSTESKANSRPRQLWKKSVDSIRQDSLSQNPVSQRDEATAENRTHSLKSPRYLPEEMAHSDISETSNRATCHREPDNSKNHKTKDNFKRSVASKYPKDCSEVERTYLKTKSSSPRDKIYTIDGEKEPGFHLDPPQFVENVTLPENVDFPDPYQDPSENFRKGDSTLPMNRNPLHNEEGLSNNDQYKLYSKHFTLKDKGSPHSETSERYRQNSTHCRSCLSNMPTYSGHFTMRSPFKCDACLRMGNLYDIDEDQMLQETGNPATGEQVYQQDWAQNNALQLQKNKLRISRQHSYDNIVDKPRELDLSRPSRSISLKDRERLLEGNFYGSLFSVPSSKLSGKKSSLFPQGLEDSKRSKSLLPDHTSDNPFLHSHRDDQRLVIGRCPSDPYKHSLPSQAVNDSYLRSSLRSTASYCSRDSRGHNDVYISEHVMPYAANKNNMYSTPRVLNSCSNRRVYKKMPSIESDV
Description: Activation of the NR2A or NR2B subtype of NMDA receptor with glutamate as an agonist and glycine co-agonist on these cells results in calcium influx, which can be monitored with fluorescent indicator Fluo-4.
For experiments, the cells were seeded onto poly-D-lysine-coated 96-well black plates with clear bottom (Corning) at a density of ^˜50,000 cells/well. After overnight culture, the growth medium was removed from the wells and the cells were incubated at 37° C. for 60 min in Hanks buffer containing 4 μM fluo-4-AM (Invitrogen) and 0.1% bovine serum albumin (BSA). After dye-loading, the cells were washed three times with Hanks buffer and incubated for 10 min at room temperature with various concentrations of test compounds prepared in Hanks buffer with 0.1% BSA. The cell plates were placed onto FDSS μCell fluorescence reader (Hamamatsu). After 20 sec reading of background fluorescence, agonist glutamate at final 100 μM and co-agonist glycine at final 50 μM were added to the cells to activate the receptor, and the resulting fluorescence changes were recorded and quantified. Based on the changes in fluorescence intensity, the pharmacological effect of test compounds were analyzed and the IC50 values derived from a non-linear least squares fitting of the concentration-dependent response to a standard logistic equation using Prism (Graphpad, Inc): Amplitude=Max Amplitude/(1+(IC50/[antagonist])^n).

[3] = test system: pentylenetetrazole-induced convulsions; assay: Pentylenetetrazole (PTZ) Seizure Test; format: in vivo, rats; details: 10 mg/kg p.o., mesylate salt, PTZ 100 mg/kg s.c.
Description: Rats, placed in individual macrolon cages (25×19×13 cm), were injected with pentylenetetrazole (PTZ) (100 mg/kg s.c.). The occurrence and latency of clonic and tonic convulsions and death were noted over a 30 minute period. 15 rats were studied per group. The test was performed blind.
(§1) Test compound E1-8.2 was administered as the free base.
Compounds were evaluated typically using 0.5% dimethylsulfoxide, 4% hydroxypropyl-b-cyclodextrin water as a vehicle at 1 or more doses (e.g., 1, 3 and 10 mg/kg), administered p.o. 30 minutes before PTZ, and compared with a vehicle control group. Diazepam (16 mg/kg p.o.), administered 60 minutes before PTZ, was used as reference substance. The experiment was performed over 2 separate sub-experiments with N=7 to 8 animals per group and per sub-experiment. Quantitative data (latencies) with the test substance was analyzed by comparing treated groups with vehicle control using Kruskal-Wallis test followed by Mann-Whitney U test. Quantitative data with the reference substance was analyzed using Mann-Whitney U test. Quantal data (frequencies) was analyzed by comparing treated groups with vehicle control using Fisher's Exact Probability tests (*=p<0.05; **=p<0.01; ***=p<0.001).

[4] = test system: immobility in forced swim test; assay: Forced Swim Test (FST) in rats; format: in vivo
Text: (§2) The forced swim test (FST) also known at the behavioural despair test was used to evaluate antidepressant activity (Porsolt et al., 1977 Arch. Int. Pharmacodyn. 229: 327-336, Porsolt et al., 1977, Eur. J. Pharmacol. 47:379-391). Mice or rats that are forced to swim in a situation from which they cannot escape, rapidly become immobile. Drugs with antidepressant activity, such as imipramine, reduce the amount of time spent in the immobile state. Therefore, the amount of immobility time during a test conducted after drug administration represents a useful indicator of antidepressant activity (Lucki et al 2001 Psychopharmacology 155:315-322; Porsolt et al., 1977, Nature 266:730-732).
Test compound E1-8.2 was administered as the free base. […]
Male Wistar rats weighing 197-251 g were used for the rat test. Rats were evaluated according to a two-session procedure with a swimming session of 15 minutes on the first day of the experiment (Session 1) followed 24 hours later by a 5-minute swimming test (Session 2). […] Rats were placed in the water 24 h later for 5 minutes (Session 2) and the duration of immobility was measured.
(§3) Animals were observed by a blinded observer. […] The amount of time each animal spent in the immobile state (and the latency to the first bout of immobility) was recorded and used for statistical analysis of compound effect. […]

[5] = test system: immobility in forced swim test; assay: Forced Swim Test (FST) in mice; format: in vivo
Text: as §2, §1
Testing for antidepressant activity was conducted in rats or mice according to the general procedures below.
Mice were evaluated in a single swimming test session of 6 minutes. Mice were placed in a transparent plastic cylinder 24 cm high with a diameter of 13 cm containing 10 cm of water with ambient temperature control generally from 22±2° C. Mice were placed in the water for 6 minutes and the duration of immobility during the last 4 minutes was measured.
as §3, with “effect. Group differences were evaluated by student's t-test (reference substance) or one-way ANOVA followed by post-hoc Dunnett's test (test substances).” for “effect.”
Male mice (strain NLMN) weighing 25-35 g were used for testing. […] The mice were videotaped for 6 minutes, and the last 4 minutes of video were analyzed by a blinded observer off-line. […] The amount of time each animal spent in the immobile state was recorded and used for statistical analysis of compound effect. Group differences were evaluated by student's t-test or one-way ANOVA followed by post-hoc Dunnett's test. […]

| SMILES | partial effect on [3H] MK-801 binding [1] | CYP2D6 @ 10 μM (%) (CYP2D6) | other results |
| --- | --- | --- | --- |
| O=C(OCc1ccc(Cl)cc1)N1CC[C@H](CNc2nccn3cnnc23)C(F)(F)C1 [Compound E1-1.3, R-4-chlorobenzyl 4-(([1,2,4]triazolo[4,3-a]pyrazin-8-ylamino)methyl)-3,3-difluoropiperidine-1-carboxylate] | 41% | 37% |  |
| O=C(OCc1ccc(F)cc1)N1CC[C@H](CNc2nccn3cnnc23)C(F)(F)C1 [Compound E1-1.4, R-4-fluorobenzyl 4-(([1,2,4]triazolo[4,3-a]pyrazin-8-ylamino)methyl)-3,3-difluoropiperidine-1-carboxylate] | 32% | 19% |  |
| CCc1ccc(COC(=O)N2CC[C@H](CNc3nccn4cnnc34)C(F)(F)C2)cc1 [Compound E1-1.5, R-4-ethylbenzyl 4-(([1,2,4]triazolo[4,3-a]pyrazin-8-ylamino)methyl)-3,3-difluoropiperidine-1-carboxylate] | 48% |  |  |
| Cc1ccc(COC(=O)N2CC[C@H](CNc3cncc4nncn34)C(F)(F)C2)cc1 [Compound E1-2.2, R-4-methylbenzyl 4-(([1,2,4]triazolo[4,3-a]pyrazin-5-ylamino)methyl)-3,3-difluoropiperidine-1-carboxylate] |  | 18% |  |
| Cc1ccc(COC(=O)N2CC[C@H](CNc3ncc4cn[nH]c4n3)C(F)(F)C2)cc1 [Compound E1-8.2, (+)-R-4-methylbenzyl-4-((1H-pyrazolo[3,4-d]pyrimidin-6-ylamino)methyl)-3,3-difluoropiperidine-1-carboxylate] | 33% | 83% | activity on electroconvulsive threshold ([2]; 0.5 and 2 mpk p.o., free base): modest proconvulsant activity; activity on electroconvulsive threshold ([2]; 10 and 20 mpk p.o., free base): anticonvulsant activity; pIC50 (cloned human NR1/NR2A): < 5.00 |
| Cc1ccc(COC(=O)N2CC[C@H](CNc3nc4ccccn4n3)C(F)(F)C2)cc1 [Compound E1-9.2, (+)-R-4-methylbenzyl 4-(([1,2,4]triazolo[1,5-α]pyridin-2-ylamino)methyl)-3,3-difluoropiperidine-1-carboxylate] | 34% | 14% | pIC50 (cloned human NR1/NR2A): < 5.00 |
| Cc1ccc(COC(=O)N2CC[C@H](CNc3cnccn3)C(F)(F)C2)cc1 [Compound E1-21.2, R-4-methylbenzyl 3,3-difluoro-4-((pyrazin-2-ylamino)methyl)piperidine-1-carboxylate] | 49% | 97% |  |
| Cc1ccc(COC(=O)N2CC[C@H](CNc3cnc(C)cn3)C(F)(F)C2)cc1 [Compound E1-21.26, R-4-methylbenzyl 3,3-difluoro-4-((5-methylpyrazin-2-ylamino)-methyl)piperidine-1-carboxylate] | 41% | 32% | latency to death, change vs vehicle controls [3]: +31%; number of deaths, change vs vehicle controls [3]: −82%; activity on electroconvulsive threshold ([2]; 3 and 10 mpk p.o., mesylate salt): anticonvulsant activity |
| Cc1ccc(COC(=O)N2CC[C@@H](CNc3nccn4cnnc34)C(F)(F)C2)cc1 [Compound E2-1.2, (−)-S-4-methylbenzyl 4-(([1,2,4]triazolo[4,3-a]pyrazin-8-ylamino)methyl)-3,3-difluoropiperidine-1-carboxylate] | 36% |  |  |
| FC(F)(F)c1ccc(C(F)(F)CN2CCC(Nc3ncnc4[nH]ncc34)CC2)cc1 [LX-1, reference compound] |  | 93% |  |
| CN(C)CCCN1c2ccccc2CCc2ccccc21 [imipramine] |  |  | antidepressant activity (immobility time) ([4]; 32 mpk i.p. 3 times: 24 h, 4 h and 30 min before the test (Session 2)): expected antidepressant activity; antidepressant activity (immobility time) ([4]; 64 mpk p.o. 3 times: 24 h, 4 h and 60 min before the test (Session 2)): expected antidepressant activity; antidepressant activity (immobility time) ([5]; 32 mpk i.p. once 30 min before the test): expected antidepressant activity; antidepressant activity (immobility time) ([5]; 64 mpk p.o. once 60 min before the test): expected antidepressant activity; antidepressant activity (immobility time) ([5]; 128 mpk p.o. once 60 minutes before the test on Day 7): expected antidepressant activity |
| Cn1c(=O)c2[nH]cnc2n(C)c1=O [theophylline, reference compound] |  |  | activity on electroconvulsive threshold ([2]; 128 mpk p.o.): expected proconvulsant activity |
